Measured values published in the NIST ThermoML archive (doi:10.1016/j.tca.2006.05.010).
Numbers after ± are expanded uncertainties.

What was measured:
[1] = 101.33 kPa, Liquid, Vibrating tube method
[2] = molar heat capacity at constant pressure; conditions: 101.33 kPa, Liquid, Small sample (50 mg) DSC
[3] = refractive index (Na D-line) (dimensionless); conditions: 101.33 kPa, Liquid, Standard Abbe refractometry
[4] = molar heat capacity at constant pressure; xn = mol fraction of the nth substance listed; conditions: 308.15 K, 101 kPa, Liquid, Small sample (50 mg) DSC
[5] = excess molar enthalpy (molar enthalpy of mixing); xn = mol fraction of the nth substance listed; conditions: 308.15 K, 101 kPa, Liquid, Flow calorimetry

CCOCCOCC [1,2-diethoxyethane]
Conditions | mass density, [1] [kg/m3] | molar heat capacity at constant pressure, [2] [J/K/mol] | refractive index, [3]
288.15 K | – | 254.5 ± 3.9 | –
293.15 K | – | 255.3 ± 4 | –
298.15 K | 835.11 ± 0.15 | 257.5 ± 4 | 1.3897 ± 0.0004
303.15 K | – | 257.9 ± 4 | –
308.15 K | 826.026 ± 0.15 | 258.7 ± 4 | 1.3853 ± 0.0004
313.15 K | – | 259.5 ± 4 | –
318.15 K | – | 261.2 ± 4 | –
323.15 K | – | 262.9 ± 4.1 | –

COCCOC [1,2-dimethoxyethane]
Conditions | mass density, [1] [kg/m3] | molar heat capacity at constant pressure, [2] [J/K/mol] | refractive index, [3]
288.15 K | – | 188.7 ± 2.9 | –
293.15 K | – | 189 ± 2.9 | –
298.15 K | 861.9 ± 0.24 | 191 ± 3 | 1.3781 ± 0.0004
303.15 K | – | 192.2 ± 3 | –
308.15 K | 851.28 ± 0.24 | 193.4 ± 3 | 1.3726 ± 0.0004
313.15 K | – | 194.5 ± 3 | –
318.15 K | – | 195.8 ± 3 | –
323.15 K | – | 196.9 ± 3.1 | –

COCCOC [1,2-dimethoxyethane] + C[S+](C)[O-]
Conditions | excess molar enthalpy [kcal/mol] | molar heat capacity at constant pressure [J/K/mol]
[4], x2 = 0.1017 | – | 188.6 ± 2.9
[4], x2 = 0.1471 | – | 186.5 ± 2.9
[4], x2 = 0.2718 | – | 180.8 ± 2.8
[4], x2 = 0.3811 | – | 175.8 ± 2.7
[4], x2 = 0.4923 | – | 170.8 ± 2.6
[4], x2 = 0.5507 | – | 168.3 ± 2.6
[4], x2 = 0.5831 | – | 166.9 ± 2.6
[4], x2 = 0.677 | – | 163.1 ± 2.5
[4], x2 = 0.7788 | – | 159.4 ± 2.5
[4], x2 = 0.8414 | – | 157.6 ± 2.4
[4], x2 = 0.9315 | – | 155.5 ± 2.4
[4], x2 = 0.9626 | – | 155 ± 2.4
[5], x2 = 0.0577 | 0.0184 ± 0.000478 | –
[5], x2 = 0.1092 | 0.0339 ± 0.000478 | –
[5], x2 = 0.1553 | 0.0461 ± 0.000717 | –
[5], x2 = 0.1969 | 0.0552 ± 0.000717 | –
[5], x2 = 0.2689 | 0.0681 ± 0.000956 | –
[5], x2 = 0.329 | 0.0779 ± 0.000956 | –
[5], x2 = 0.4238 | 0.0863 ± 0.0012 | –
[5], x2 = 0.495 | 0.0875 ± 0.0012 | –
[5], x2 = 0.5953 | 0.087 ± 0.0012 | –
[5], x2 = 0.6882 | 0.0808 ± 0.0012 | –
[5], x2 = 0.7463 | 0.0755 ± 0.000956 | –
[5], x2 = 0.8153 | 0.0633 ± 0.000956 | –
[5], x2 = 0.8547 | 0.055 ± 0.000717 | –
[5], x2 = 0.8982 | 0.0435 ± 0.000717 | –
[5], x2 = 0.9217 | 0.0339 ± 0.000478 | –
[5], x2 = 0.9464 | 0.0251 ± 0.000478 | –
[5], x2 = 0.9725 | 0.0136 ± 0.000239 | –

CCOCCOCC [1,2-diethoxyethane] + C[S+](C)[O-]
Conditions | excess molar enthalpy [kcal/mol] | molar heat capacity at constant pressure [J/K/mol]
[4], x2 = 0.0627 | – | 252.8 ± 3.9
[4], x2 = 0.1317 | – | 246 ± 3.8
[4], x2 = 0.1895 | – | 240.7 ± 3.7
[4], x2 = 0.35 | – | 225 ± 3.5
[4], x2 = 0.4563 | – | 214.4 ± 3.3
[4], x2 = 0.5642 | – | 203.2 ± 3.1
[4], x2 = 0.635 | – | 195.8 ± 3
[4], x2 = 0.6718 | – | 191.9 ± 3
[4], x2 = 0.7514 | – | 183.1 ± 2.8
[4], x2 = 0.8274 | – | 174.7 ± 2.7
[4], x2 = 0.8881 | – | 167.7 ± 2.6
[4], x2 = 0.941 | – | 161.6 ± 2.5
[5], x2 = 0.0765 | 0.0817 ± 0.0012 | –
[5], x2 = 0.1421 | 0.127 ± 0.00167 | –
[5], x2 = 0.199 | 0.155 ± 0.00191 | –
[5], x2 = 0.2488 | 0.172 ± 0.00215 | –
[5], x2 = 0.332 | 0.192 ± 0.00239 | –
[5], x2 = 0.3986 | 0.201 ± 0.00263 | –
[5], x2 = 0.4985 | 0.213 ± 0.00263 | –
[5], x2 = 0.5698 | 0.211 ± 0.00263 | –
[5], x2 = 0.6653 | 0.2 ± 0.00263 | –
[5], x2 = 0.7489 | 0.174 ± 0.00215 | –
[5], x2 = 0.799 | 0.152 ± 0.00191 | –
[5], x2 = 0.8564 | 0.12 ± 0.00167 | –
[5], x2 = 0.8883 | 0.0949 ± 0.0012 | –
[5], x2 = 0.9227 | 0.07 ± 0.000956 | –
[5], x2 = 0.9408 | 0.0586 ± 0.000956 | –
[5], x2 = 0.9598 | 0.0382 ± 0.000478 | –
[5], x2 = 0.9795 | 0.0198 ± 0.000478 | –

C[S+](C)[O-] [dimethyl sulfoxide]
Conditions | mass density [kg/m3] | molar heat capacity at constant pressure [J/K/mol] | refractive index
[1], 298.15 K | 1095.58 ± 0.29 | – | –
[1], 308.15 K | 1085.5 ± 0.29 | – | –
[2], 293.15 K | – | 151.2 ± 2.3 | –
[2], 298.15 K | – | 152.4 ± 2.4 | –
[2], 303.15 K | – | 153.4 ± 2.4 | –
[2], 308.15 K | – | 154.8 ± 2.4 | –
[2], 313.15 K | – | 155.4 ± 2.4 | –
[2], 318.15 K | – | 156.6 ± 2.4 | –
[2], 323.15 K | – | 157.7 ± 2.4 | –
[2], 328.15 K | – | 157.8 ± 2.4 | –
[2], 333.15 K | – | 158.5 ± 2.5 | –
[2], 338.15 K | – | 159.3 ± 2.5 | –
[2], 343.15 K | – | 159.5 ± 2.5 | –
[2], 348.15 K | – | 160.2 ± 2.5 | –
[2], 353.15 K | – | 160.3 ± 2.5 | –
[2], 358.15 K | – | 161.3 ± 2.5 | –
[2], 363.15 K | – | 161.5 ± 2.5 | –
[2], 368.15 K | – | 161.7 ± 2.5 | –
[2], 373.15 K | – | 162.6 ± 2.5 | –
[2], 378.15 K | – | 163.3 ± 2.5 | –
[2], 383.15 K | – | 164.8 ± 2.6 | –
[2], 388.15 K | – | 166.3 ± 2.6 | –
[2], 393.15 K | – | 168.3 ± 2.6 | –
[2], 398.15 K | – | 169.1 ± 2.6 | –
[2], 403.15 K | – | 170.3 ± 2.6 | –
[2], 408.15 K | – | 170.4 ± 2.6 | –
[2], 413.15 K | – | 170.6 ± 2.6 | –
[2], 418.15 K | – | 171.1 ± 2.7 | –
[2], 423.15 K | – | 171.2 ± 2.7 | –
[3], 298.15 K | – | – | 1.4775 ± 0.0004
[3], 308.15 K | – | – | 1.4729 ± 0.0004

C1CCOCC1 [tetrahydropyran] + C[S+](C)[O-]
Conditions | excess molar enthalpy [kcal/mol] | molar heat capacity at constant pressure [J/K/mol]
[4], x2 = 0.0834 | – | 152.1 ± 2.4
[4], x2 = 0.1416 | – | 152.4 ± 2.4
[4], x2 = 0.2619 | – | 152.8 ± 2.4
[4], x2 = 0.376 | – | 153.1 ± 2.4
[4], x2 = 0.4572 | – | 153.5 ± 2.4
[4], x2 = 0.5817 | – | 153.7 ± 2.4
[4], x2 = 0.6249 | – | 153.8 ± 2.4
[4], x2 = 0.659 | – | 153.8 ± 2.4
[4], x2 = 0.7619 | – | 153.9 ± 2.4
[4], x2 = 0.8405 | – | 154 ± 2.4
[4], x2 = 0.9268 | – | 154.2 ± 2.4
[4], x2 = 0.952 | – | 154.3 ± 2.4
[5], x2 = 0.0543 | 0.0899 ± 0.0012 | –
[5], x2 = 0.1148 | 0.16 ± 0.00215 | –
[5], x2 = 0.1469 | 0.187 ± 0.00239 | –
[5], x2 = 0.1867 | 0.214 ± 0.00263 | –
[5], x2 = 0.2562 | 0.243 ± 0.00311 | –
[5], x2 = 0.3146 | 0.261 ± 0.00335 | –
[5], x2 = 0.4079 | 0.273 ± 0.00335 | –
[5], x2 = 0.4786 | 0.278 ± 0.00359 | –
[5], x2 = 0.5708 | 0.27 ± 0.00335 | –
[5], x2 = 0.6739 | 0.247 ± 0.00311 | –
[5], x2 = 0.7337 | 0.226 ± 0.00287 | –
[5], x2 = 0.8051 | 0.19 ± 0.00239 | –
[5], x2 = 0.8464 | 0.164 ± 0.00215 | –
[5], x2 = 0.8921 | 0.121 ± 0.00167 | –
[5], x2 = 0.9168 | 0.0985 ± 0.00143 | –
[5], x2 = 0.9429 | 0.0705 ± 0.000956 | –
[5], x2 = 0.9706 | 0.0375 ± 0.000478 | –
